Data from PubChem BioAssay AID1259411 (Chemical Carcinogenesis Research Information System (CCRIS), 2018).
The source made the active and inactive calls. The rule behind the calls is not given here.

Tested on: rodent carcinogenicity bioassays, tumor incidence
Assay: CCRIS carcinogenicity studies
How it was run: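 NCI-built, expert-reviewed records of carcinogenicity and related test outcomes (mutagenicity, tumor promotion/inhibition) compiled from published and report sources, historical span 1985-2011, not updated.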

In the case of `CN(N)C=O`, the carcinogen call (Species: MOUSE, Strain/Sex: SWISS/FEMALE, Route: ORAL, Dose: 0, 0.0078% SOLUTION IN DRINKING WATER STARTING AT 6 WK OF AGE FOR LIFE FOR AVERAGE DAILY INTAKE OF 0 OR 0.80 MG (STUDY D, Tumor Site: Type of Lesion: LIVER: HEPATOMA OR CARCINOMA, LUNG: ADENOMA OR ADENOCARCINOMA) is reported as “active; positive” and the carcinogen call (Species: MOUSE, Strain/Sex: SWISS/MALE, Route: ORAL, Dose: 0, 0.0078% SOLUTION IN DRINKING WATER STARTING AT 6 WK OF AGE FOR LIFE FOR AVERAGE DAILY INTAKE OF 0 OR 0.99 MG (STUDY D, Tumor Site: Type of Lesion: LIVER: HEPATOMA OR CARCINOMA, LUNG: ADENOMA OR ADENOCARCINOMA, GALLBLADDER: ADENOMA, BILE DUCT: CHOLANGIOMA OR CHOLANGIO, Tumor Site: Type of Lesion: LIVER: HEPATOMA OR CARCINOMA, LUNG: ADENOMA OR ADENOCARCINOMA, GALLBLADDER: ADENOMA, BILE DUCT: CHOLANGIOMA OR CHOLANGIO) is reported as “active; positive”.

`Oc1c(Cl)cc(Cl)c(Cl)c1Cc1c(O)c(Cl)cc(Cl)c1Cl` was tested, and the carcinogen call (Species: RAT, Strain/Sex: F344/FEMALE, Route: ORAL, Dose: 0, 17, 50, 150 PPM IN DIET, Dose: 0, 17, 50, 150 PPM IN DIET) was “inactive; negative” and the carcinogen call (Species: RAT, Strain/Sex: F344/MALE, Route: ORAL, Dose: 0, 17, 50, 150 PPM IN DIET, Dose: 0, 17, 50, 150 PPM IN DIET) was “inactive; negative”.

In the case of `C[C@H]1CCCC(=O)CCC/C=C/c2cc(O)cc(O)c2C(=O)O1`, the carcinogen call (Species: MOUSE, Strain/Sex: B6C3F1/FEMALE, Route: ORAL, Dose: 0, 50, 100 PPM IN DIET, Dose: 0, 50, 100 PPM IN DIET, Tumor Site: Type of Lesion: LIVER: HEPATOCELLULAR ADENOMA, CARCINOMA, PITUITARY GLAND: ADENOMA, CARCINOMA) is reported as “active; positive”, the carcinogen call (Species: MOUSE, Strain/Sex: B6C3F1/MALE, Route: ORAL, Dose: 0, 50, 100 PPM IN DIET, Dose: 0, 50, 100 PPM IN DIET, Tumor Site: Type of Lesion: PITUITARY GLAND: ADENOMA, CARCINOMA) is reported as “active; positive” and the carcinogen call (Species: RAT, Strain/Sex: F344/FEMALE, Route: ORAL, Dose: 0, 25, 50 PPM IN DIET, Dose: 0, 25, 50 PPM IN DIET) is reported as “inactive; negative”. For the same molecule, the carcinogen call (Species: RAT, Strain/Sex: F344/MALE, Route: ORAL, Dose: 0, 25, 50 PPM IN DIET, Dose: 0, 25, 50 PPM IN DIET) was “inactive; negative”.

For `CC/C(=C(\c1ccc(O)cc1)c1ccc(OCCN(C)C)cc1)c1ccccc1`, the carcinogen call (Species: RAT, Strain/Sex: SPRAGUE-DAWLEY/FEMALE, Route: DERMAL, Dose: 0, 20, 140, 1000 UG/KG/D FOR 101 WK (STUDY DURATION: 101 WK), Dose: 0, 20, 140, 1000 UG/KG/D FOR 101 WK (STUDY DURATION: 101 WK)) was “inactive; negative”.

In the case of `Nc1ccc2cc3ccc(N)cc3nc2c1`, the carcinogen call (Species: MOUSE, Strain/Sex: B6C3F1/FEMALE, Route: ORAL, Dose: 0, 200, 400 PPM IN DIET FOR 104 WK (STUDY DURATION: 104 WK), Dose: 0, 200, 400 PPM IN DIET FOR 104 WK (STUDY DURATION: 104 WK), Tumor Site: Type of Lesion: LIVER: HEPATOCELLULAR CARCINOMA) is reported as “equivocal”, the carcinogen call (Species: MOUSE, Strain/Sex: B6C3F1/MALE, Route: ORAL, Dose: 0, 200, 400 PPM IN DIET FOR 104 WK (STUDY DURATION: 104 WK), Dose: 0, 200, 400 PPM IN DIET FOR 104 WK (STUDY DURATION: 104 WK), Tumor Site: Type of Lesion: LIVER: HEPATOCELLULAR CARCINOMA) is reported as “equivocal” and the carcinogen call (Species: RAT, Strain/Sex: F344/FEMALE, Route: ORAL, Dose: 0, 300, 600 PPM IN DIET, Dose: 0, 300, 600 PPM IN DIET) is reported as “inactive; negative”. For the same molecule, the carcinogen call (Species: RAT, Strain/Sex: F344/MALE, Route: ORAL, Dose: 0, 300, 600 PPM IN DIET FOR 109 WK (STUDY DURATION: 109 WK), Dose: 0, 300, 600 PPM IN DIET FOR 109 WK (STUDY DURATION: 109 WK), Tumor Site: Type of Lesion: INTESTINE: LEIOMYOSARCOMA OR ADENOCARCINOMA OR SARCOMA) was “equivocal”.

`CC(=O)N(O)c1ccc(-c2ccccc2)cc1` was tested, and the carcinogen call (Species: RAT, Strain/Sex: STRAIN-CD/FEMALE, Route: INTRAPERITONEAL, Dose: 0, 100 UMOL/KG BW 2/WK FOR 6 WK (STUDY DURATION: 62 WK)) was “inactive; negative”.

With `C1CC2OC2CC1C1CO1` (stereo not drawn) the carcinogen call (Species: MOUSE, Route: DERMAL, Tumor Site: Type of Lesion: INTEGUMENTARY SYSTEM (SKIN)) was “active; positive”, the carcinogen call (Species: MOUSE, Strain/Sex: B6C3F1/FEMALE, Route: DERMAL, Dose: 0, 2.5, 5, 10 MG/MOUSE IN ACETONE 5 D/WK FOR 103 WK, HIGH DOSE FEMALE MICE 85 WK (STUDY DURATION: 105 WK), Dose: 0, 2.5, 5, 10 MG/MOUSE IN ACETONE 5 D/WK FOR 103 WK, HIGH DOSE FEMALE MICE 85 WK (STUDY DURATION: 105 WK), Tumor Site: Type of Lesion: LUNG: ALVEOLAR/BRONCHIOLAR ADENOMA OR CARCINOMA, OVARY: GRANULOSA CELL TUMOR, GRANULOSA CELL TUMOR OR MALIGNANT GRANULOS) was “active; positive” and the carcinogen call (Species: MOUSE, Strain/Sex: B6C3F1/MALE, Route: DERMAL, Dose: 0, 2.5, 5, 10 MG/MOUSE IN ACETONE 5 D/WK FOR 103 WK (STUDY DURATION: 105 WK), Dose: 0, 2.5, 5, 10 MG/MOUSE IN ACETONE 5 D/WK FOR 103 WK (STUDY DURATION: 105 WK), Tumor Site: Type of Lesion: SKIN (APPLICATION SITE): BASOSQUAMOUS TUMOR MALIGNANT, BASOSQUAMOUS TUMOR MALIGNANT OR BASAL CELL CARCINOMA, SQUAMOUS CE) was “active; positive”. For the same molecule, the carcinogen call (Species: RAT, Strain/Sex: F344/FEMALE, Route: DERMAL, Dose: 0, 15, 30 MG/RAT IN ACETONE 5 D/WK FOR 105 WK (STUDY DURATION: 106 WK), Dose: 0, 15, 30 MG/RAT IN ACETONE 5 D/WK FOR 105 WK (STUDY DURATION: 106 WK), Tumor Site: Type of Lesion: SKIN (APPLICATION SITE): BASAL CELL CARCINOMA, SEBACEOUS GLAND ADENOMA OR BASAL CELL CARCINOMA, SQUAMOUS CELL CARCINOMA) was “active; positive” and the carcinogen call (Species: RAT, Strain/Sex: F344/MALE, Route: DERMAL, Dose: 0, 15, 30 MG/RAT IN ACETONE 5 D/WK FOR 105 WK (STUDY DURATION: 106 WK), Dose: 0, 15, 30 MG/RAT IN ACETONE 5 D/WK FOR 105 WK (STUDY DURATION: 106 WK), Tumor Site: Type of Lesion: SKIN (APPLICATION SITE): BASAL CELL ADENOMA, BASAL CELL CARCINOMA, BASAL CELL ADENOMA OR SEBACEOUS GLAND ADENOMA, SQUAMO) was “active; positive”.

`CCn1c2ccccc2c2ccccc21` was tested, and the carcinogen call (Species: MOUSE, Strain/Sex: CD-1/FEMALE, Route: INTRAPERITONEAL, Dose: 0, 1.75 UMOL/MOUSE (TOTAL DOSE) ADMINISTERED DURING DAYS 1, 8, AND 15 OF LIFE (STUDY DURATION: 52 WK)) was “inactive; negative” and the carcinogen call (Species: MOUSE, Strain/Sex: CD-1/MALE, Route: INTRAPERITONEAL, Dose: 0, 1.75 UMOL/MOUSE (TOTAL DOSE) ADMINISTERED DURING DAYS 1, 8, AND 15 OF LIFE (STUDY DURATION: 52 WK)) was “inactive; negative”.

In the case of `Cc1ccc(O)c(O)c1`, the carcinogen call (Species: RAT, Strain/Sex: F344/FEMALE, Route: ORAL, Dose: 0, 2% IN DIET FOR 104 WK (STUDY DURATION: 104 WK), Tumor Site: Type of Lesion: FORESTOMACH: PAPILLOMA, SQUAMOUS CELL CARCINOMA, GLANDULAR STOMACH: ADENOMA, ADENOCARCINOMA) is reported as “active; positive” and the carcinogen call (Species: RAT, Strain/Sex: F344/MALE, Route: ORAL, Dose: 0, 2% IN DIET FOR 104 WK (STUDY DURATION: 104 WK), Tumor Site: Type of Lesion: FORESTOMACH: PAPILLOMA, SQUAMOUS CELL CARCINOMA, GLANDULAR STOMACH: ADENOMA, ADENOCARCINOMA) is reported as “active; positive”.
